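Briefly, cells in 96-well plates were exposed to five compound concentrations for 48 h, and endpoints were estimated by linear interpolation. Abbreviation: GI50, concentration required for 50% inhibition of growth. Definition used: TGI = concentration required for complete inhibition of growth.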 Where a SMILES comes first, the peptide text is derived from it. The star is where a group is joined. Trt = c1ccc(C(c2ccccc2)(c2ccccc2)*)cc1; Cbz = O=C(OCc1ccccc1)*
What was measured:
Assay in all cases: NCI anticancer screen, dose series, 48 h
[1] = test system: NCI-H226 lung
[2] = test system: OVCAR-4 ovarian
[3] = test system: 786-0 renal
[4] = test system: MDA-MB-435
[5] = test system: NCI-H460 lung
[6] = test system: A549 NSCLC
[7] = test system: HCT-15 colon
[8] = test system: HOP-92 NSCLC
[9] = test system: NCI/ADR-RES ovarian
[10] = test system: MOLT-4 leukemia

Row | SMILES | GI50 [1] [nM] | TGI [1] [µM] | GI50 [2] [µM] | TGI [2] [µM] | GI50 [3] [nM] | TGI [3] [µM] | GI50 [4] [µM] | TGI [4] [µM] | GI50 [5] [nM] | TGI [5] [µM] | GI50 [6] [µM] | TGI [6] [µM] | GI50 [7] [nM] | TGI [7] [µM] | GI50 [8] [µM] | TGI [8] [µM] | GI50 [9] [µM] | TGI [9] [µM] | GI50 [10] [nM] | TGI [10] [µM]
1 | O=C1NC(=NCc2ccccc2Cl)S/C1=C\c1ccc2ncccc2c1 | > 18300 | > 25 | 14.7 | > 25 | 16300 | > 25 | 6.83 | > 25 | 10600 | > 25 | 8.5 | > 25 | 4330 | > 25 | 5.85 | > 22.1 | > 25 | > 25 | > 25000 | > 25
2 | C[C@@]1([C@H](OC(=O)c2ccccc2)C(N)=O)CO1 | – | – | 37.6 | > 100 | 22600 | 59.4 | 17.8 | 36 | 20600 | 53 | 24 | 61.4 | 20800 | 54.9 | 14.8 | 42.1 | 16.4 | 44.3 | 35700 | > 100
3 | NS(=O)(=O)c1ccc(Nc2cc(-c3ccc(O)c(F)c3)[nH]n2)cc1 | > 25000 | > 25 | 8.8 | > 25 | > 25000 | > 25 | > 23.5 | > 25 | > 25000 | > 25 | > 25 | > 25 | > 25000 | > 25 | > 18.3 | > 25 | > 25 | > 25 | > 25000 | > 25
4 | COc1cc2cc(Oc3ccc(NC(=O)Nc4cc(C(F)(F)F)cc(C(F)(F)F)c4)cc3)c(C)nc2cc1OCCN1CCOCC1 | 1600 | 6.53 | 1.88 | 6.95 | 1280 | 3.65 | 1.9 | 6.72 | 1660 | 5.52 | 1.72 | 7.23 | 1100 | 2.77 | 0.9 | 2.71 | 1.59 | 7.21 | 1320 | 4.29
5 | COc1cc([N+](=O)[O-])c(OC)cc1-c1nc2sc(C)c(C)n2c1/C(N)=N/C(=N)N | – | – | – | – | > 100000 | > 100 | > 100 | > 100 | > 100000 | > 100 | > 100 | > 100 | > 100000 | > 100 | 51.6 | > 100 | > 100 | > 100 | > 100000 | > 100
6 | COc1cc(/C=C/C(=O)c2cccc(-n3cc(-c4cc(OC)c(OC)c(OC)c4)[nH]c3=O)c2)cc(OC)c1OC | 14400 | 80.3 | 3.77 | 55.6 | 1590 | 3.14 | 2.11 | 9.92 | 1730 | 3.98 | 3.03 | 18.5 | 1890 | 7.51 | – | – | – | – | 1750 | 8.08
7 | Clc1nccc2c(-c3csc(-c4c[nH]c5ccc(Br)cc45)n3)c[nH]c12 | 2400 | 13.8 | 3.25 | 15.9 | 1370 | 2.93 | 3.43 | 13 | 2160 | 4.58 | 3.83 | 12.8 | 1400 | 3.33 | 2.43 | 6.81 | 2.71 | 10.7 | 3020 | 13.9
8 | COC(=O)C(CO)NC(=O)C(CSC(c1ccccc1)(c1ccccc1)c1ccccc1)NC(=O)OCc1ccccc1 (centres undefined) (Cbz-Cys(Trt)-Ser-OMe; configuration not given here) | – | 26.4 | – | > 50.2 | – | 46.9 | – | 30.2 | – | 33.6 | – | > 48.5 | – | > 52.9 | – | 29.8 | – | 49.5 | – | > 32.1
9 | COc1ccc2nc3cc(Cl)ccc3c(NCCCNCCO)c2c1 | 1160 | 3.12 | 0.484 | 2.87 | 531 | 1.96 | 0.522 | 1.88 | 275 | 1.2 | 0.378 | 2.06 | 577 | 3.15 | 1.2 | 3.45 | 4.03 | 19.8 | 413 | 3.4
10 | Cc1ccc(CNc2ccc(Br)cc2)cc1 | – | > 100 | – | – | – | > 100 | – | > 100 | – | > 100 | – | > 100 | – | 66.1 | – | 65.3 | – | > 100 | – | > 100
11 | O=C(O)C1=C/C(=C(/c2ccccc2)c2cc(C(=O)O)c(O)c3ccccc23)c2ccccc2C1=O | – | > 100 | – | > 100 | – | > 100 | – | > 100 | – | > 100 | – | > 100 | – | > 100 | – | > 100 | – | > 100 | – | > 100
12 | COc1ccc(-c2cc(-c3ccc(Nc4nc(Nc5ccccc5)nc(Nc5ccc(Cl)cc5)n4)cc3)nc(N)n2)cc1 | 12900 | > 50 | 10.7 | > 50 | 11500 | 33.1 | 14.5 | > 50 | 8570 | 26.7 | 20.5 | > 50 | 13500 | > 50 | 5.28 | 19.3 | 37.4 | > 50 | 623 | 12
13 | CCCCN(CCCC)C(=O)[C@H](CC)[C@@H]1CC[C@@H](C)[C@@H]([C@H](C)[C@@H](O)[C@@H](C)C(=O)[C@H](CC)C2O[C@]3(C=C[C@@H](O)[C@]4(CC[C@@](C)([C@H]5CC[C@](O)(CC)[C@H](C)O5)O4)O3)[C@H](C)C[C@@H]2C)O1 (some centres undefined) | 2010 | 5.51 | 2.85 | 36 | 2490 | 7.44 | 2.92 | 10.1 | 1990 | 4.47 | 3.12 | 34.4 | 2310 | 6.12 | 1.2 | 4.05 | 2.5 | 9.02 | 2680 | 8.31
